Measurements as given in patent US7880007B2, “Bicyclic substituted phenyl piperidine modulators of muscarinic receptors” (Vertex Pharmaceuticals Incorporated, priority 2004, dated 2011).

Experiments:
Assay type in all cases: cell-based
M1 muscarinic receptor = target: T1, M1 muscarinic receptor (Homo sapiens, UniProt P11229); experiment: Functional mobilization of intracellular calcium (FLIPR), M1-CHO cells; conditions: for M1 Activity: M1-CHO cells, calcium mobilization (FLIPR)
T1 construct: expressed in transfected cells; host or cells: CHO (M1-CHO)
T1 sequence (P11229 1-460): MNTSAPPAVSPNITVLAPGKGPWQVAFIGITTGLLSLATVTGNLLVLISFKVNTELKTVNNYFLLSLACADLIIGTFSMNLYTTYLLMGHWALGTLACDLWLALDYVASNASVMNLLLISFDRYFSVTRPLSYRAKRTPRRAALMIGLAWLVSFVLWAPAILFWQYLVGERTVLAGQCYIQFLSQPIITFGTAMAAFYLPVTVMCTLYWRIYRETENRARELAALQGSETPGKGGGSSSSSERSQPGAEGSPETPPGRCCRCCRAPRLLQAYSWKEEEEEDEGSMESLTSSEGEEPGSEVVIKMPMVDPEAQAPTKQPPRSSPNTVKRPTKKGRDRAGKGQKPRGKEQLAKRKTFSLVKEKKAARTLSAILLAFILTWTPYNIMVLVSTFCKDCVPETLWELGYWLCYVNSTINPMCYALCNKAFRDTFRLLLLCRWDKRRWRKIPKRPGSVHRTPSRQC
How it was run: (§1)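 Calcium mobilisation read by FLIPR over 60 s (ex 488/em 540 nm) in recombinant muscarinic CHO lines loaded with calcium dye plus 1 mM probenecid. Compounds tested as agonists alone, or as inhibitors against EC80 carbachol after 15 min pre-incubation or co-addition; 0.5% DMSO; efficacy scaled to carbachol maximal response.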

M3 muscarinic receptor = target: T2, M3 muscarinic receptor (Homo sapiens, UniProt P20309); experiment: Functional mobilization of intracellular calcium (FLIPR), M3-CHO cells; conditions: for M3 Activity: M3-CHO cells, calcium mobilization (FLIPR)
T2 construct: expressed in transfected cells; host or cells: CHO (M3-CHO)
T2 sequence (P20309 whole entry): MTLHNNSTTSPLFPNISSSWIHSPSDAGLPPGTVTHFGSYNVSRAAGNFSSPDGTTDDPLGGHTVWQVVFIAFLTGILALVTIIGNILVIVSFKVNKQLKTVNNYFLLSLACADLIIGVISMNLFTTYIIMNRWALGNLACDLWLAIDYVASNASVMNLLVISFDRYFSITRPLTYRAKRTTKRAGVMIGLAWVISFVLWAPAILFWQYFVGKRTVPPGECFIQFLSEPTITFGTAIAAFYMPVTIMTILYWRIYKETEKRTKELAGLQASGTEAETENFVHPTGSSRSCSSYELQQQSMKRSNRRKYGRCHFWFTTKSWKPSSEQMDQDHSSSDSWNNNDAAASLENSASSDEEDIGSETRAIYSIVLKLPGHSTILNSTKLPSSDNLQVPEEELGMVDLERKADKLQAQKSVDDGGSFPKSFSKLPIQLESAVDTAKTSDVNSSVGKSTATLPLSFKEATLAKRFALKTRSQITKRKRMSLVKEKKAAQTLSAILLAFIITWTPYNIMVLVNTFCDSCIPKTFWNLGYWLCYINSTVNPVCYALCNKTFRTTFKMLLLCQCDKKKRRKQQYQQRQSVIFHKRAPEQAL
How it was run: as §1

M4 muscarinic receptor = target: T3, M4 muscarinic receptor (Homo sapiens, UniProt P08173); experiment: Functional mobilization of intracellular calcium (FLIPR), M4-CHO cells; conditions: for M4 Activity: M4-CHO cells, calcium mobilization (FLIPR)
T3 construct: expressed in transfected cells; host or cells: CHO (M4-CHO)
T3 sequence (P08173 1-479): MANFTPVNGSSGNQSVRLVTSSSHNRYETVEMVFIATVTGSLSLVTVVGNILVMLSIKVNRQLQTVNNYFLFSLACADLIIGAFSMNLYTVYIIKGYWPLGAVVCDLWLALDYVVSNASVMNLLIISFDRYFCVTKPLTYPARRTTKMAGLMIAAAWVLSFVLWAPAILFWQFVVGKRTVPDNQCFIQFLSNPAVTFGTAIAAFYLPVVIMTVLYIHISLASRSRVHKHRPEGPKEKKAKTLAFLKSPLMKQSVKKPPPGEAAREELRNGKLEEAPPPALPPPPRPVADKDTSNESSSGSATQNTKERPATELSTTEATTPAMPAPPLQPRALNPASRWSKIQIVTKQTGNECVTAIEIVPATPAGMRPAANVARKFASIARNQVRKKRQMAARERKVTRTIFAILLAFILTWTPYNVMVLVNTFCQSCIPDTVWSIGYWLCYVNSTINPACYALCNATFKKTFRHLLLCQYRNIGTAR
How it was run: as §1

M2 muscarinic receptor = target: T4, M2 muscarinic receptor (Homo sapiens, UniProt P08172); experiment: Functional mobilization of intracellular calcium (FLIPR), M2-CHO cells; conditions: for M2 Activity: M2-CHO cells, calcium mobilization (FLIPR)
T4 construct: expressed in transfected cells; host or cells: CHO (M2-CHO)
T4 sequence (P08172 1-466): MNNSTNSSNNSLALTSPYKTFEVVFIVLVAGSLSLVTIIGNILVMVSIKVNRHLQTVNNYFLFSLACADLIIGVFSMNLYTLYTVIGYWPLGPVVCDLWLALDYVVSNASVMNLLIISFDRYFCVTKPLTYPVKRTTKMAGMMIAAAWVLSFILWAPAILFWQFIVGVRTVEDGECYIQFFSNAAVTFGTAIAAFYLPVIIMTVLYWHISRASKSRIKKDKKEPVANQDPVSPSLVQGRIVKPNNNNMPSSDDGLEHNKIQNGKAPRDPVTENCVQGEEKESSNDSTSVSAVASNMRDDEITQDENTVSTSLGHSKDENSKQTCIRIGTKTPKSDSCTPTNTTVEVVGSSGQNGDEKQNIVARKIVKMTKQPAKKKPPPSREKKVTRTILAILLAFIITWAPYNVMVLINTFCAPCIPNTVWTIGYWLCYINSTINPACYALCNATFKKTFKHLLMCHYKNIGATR
How it was run: as §1

[1] = 100% efficacy = maximum response obtained with the Carbachol control

Compound	Emax (M1 muscarinic receptor; [1]) [%]	M1 Activity (M1 muscarinic receptor)	Emax (M3 muscarinic receptor; [1]) [%]	M3 Activity (M3 muscarinic receptor)	Emax (M4 muscarinic receptor; [1]) [%]	M4 Activity (M4 muscarinic receptor)	Emax (M2 muscarinic receptor; [1]) [%]	M2 Activity (M2 muscarinic receptor)	M1 Efficacy (M1 muscarinic receptor; [1])	M3 Efficacy (M3 muscarinic receptor; [1])	M4 Efficacy (M4 muscarinic receptor; [1])	M2 Efficacy (M2 muscarinic receptor; [1])
COc1ccc(-c2ccccc2C#N)cc1C1CCN([C@@H]2C[C@H]3CC[C@H]2C3)CC1 [Compound 92]	< 25	+ (activity was measured to be greater than 5.0 μM)	< 25	+ (activity was measured to be greater than 5.0 μM)	< 25	+ (activity was measured to be greater than 5.0 μM)	< 25	+ (activity was measured to be greater than 5.0 μM)				
Cc1ccccc1C1CCN([C@H]2C[C@H]3CC[C@H]2C3)CC1 [Compound 93]		++ (activity was measured to be from 1.0 μM to 5.0 μM)		+ (activity was measured to be greater than 5.0 μM)		+++ (activity was measured to be less than 1.0 μM)		+ (activity was measured to be greater than 5.0 μM)	++ (efficacy was calculated to be from 100% to 25%)	+ (efficacy was calculated to be less than 25%)	++ (efficacy was calculated to be from 100% to 25%)	+ (efficacy was calculated to be less than 25%)
CCOC(=O)N1CCC(CN2CCC(c3cc(C(F)(F)F)ccc3C)CC2)CC1 [Compound 94]	25 to 100	+++ (activity was measured to be less than 1.0 μM)	< 25	++ (activity was measured to be from 1.0 μM to 5.0 μM)	25 to 100	+++ (activity was measured to be less than 1.0 μM)	25 to 100	+++ (activity was measured to be less than 1.0 μM)				
COc1ccc(-c2cccc(C#N)c2)cc1C1CCN([C@H]2C[C@H]3CC[C@H]2C3)CC1 [Compound 97]	< 25	+ (activity was measured to be greater than 5.0 μM)	< 25	+ (activity was measured to be greater than 5.0 μM)	25 to 100	+ (activity was measured to be greater than 5.0 μM)	< 25	+ (activity was measured to be greater than 5.0 μM)				
CCN(CC)C(=O)c1ccc(-c2ccc(OC)c(C3CCN([C@H]4C[C@H]5CC[C@H]4C5)CC3)c2)cc1 [Compound 98]	< 25	+ (activity was measured to be greater than 5.0 μM)	< 25	+ (activity was measured to be greater than 5.0 μM)	< 25	++ (activity was measured to be from 1.0 μM to 5.0 μM)	< 25	+ (activity was measured to be greater than 5.0 μM)				
CNC(=O)c1ccc(-c2ccc(OC)c(C3CCN(C4CC5CCC(C5)C4)CC3)c2)cc1Cl (stereo not shown) [Compound 100]	< 25	+ (activity was measured to be greater than 5.0 μM)	< 25	+ (activity was measured to be greater than 5.0 μM)	25 to 100	++ (activity was measured to be from 1.0 μM to 5.0 μM)	< 25	+ (activity was measured to be greater than 5.0 μM)				
COc1ccc(-c2ccc(S(C)(=O)=O)cc2)cc1C1CCN([C@H]2C[C@H]3CC[C@H]2C3)CC1 [Compound 102]	< 25	+ (activity was measured to be greater than 5.0 μM)	< 25	+ (activity was measured to be greater than 5.0 μM)	25 to 100	++ (activity was measured to be from 1.0 μM to 5.0 μM)	< 25	+ (activity was measured to be greater than 5.0 μM)				
COc1c(F)cc(F)cc1C1CCN([C@@H]2C[C@H]3CC[C@H]2C3)CC1 [Compound 103]	< 25	+ (activity was measured to be greater than 5.0 μM)	< 25	+ (activity was measured to be greater than 5.0 μM)	< 25	++ (activity was measured to be from 1.0 μM to 5.0 μM)	< 25	+ (activity was measured to be greater than 5.0 μM)				
COc1ccc(F)cc1C1CCN(CC2CC3CCC2CC3)CC1 (stereo not shown) [Compound 104]	< 25	+ (activity was measured to be greater than 5.0 μM)	< 25	+ (activity was measured to be greater than 5.0 μM)	25 to 100	++ (activity was measured to be from 1.0 μM to 5.0 μM)	< 25	+ (activity was measured to be greater than 5.0 μM)				
COc1ccc(-c2ccc(C(C)(C)C#N)cc2)cc1C1CCN(C2CCCCC2)CC1 [Compound 105]	25 to 100	++ (activity was measured to be from 1.0 μM to 5.0 μM)	< 25	+ (activity was measured to be greater than 5.0 μM)	25 to 100	+ (activity was measured to be greater than 5.0 μM)	25 to 100	+ (activity was measured to be greater than 5.0 μM)				
CCOC(=O)N1CCC(N2CCC(c3cc(F)ccc3OC)CC2)CC1 [Compound 106]	25 to 100	+++ (activity was measured to be less than 1.0 μM)	< 25	+++ (activity was measured to be less than 1.0 μM)	25 to 100	+++ (activity was measured to be less than 1.0 μM)	25 to 100	+++ (activity was measured to be less than 1.0 μM)				
CCOC(=O)N1CCC(CN2CCC(OC)(c3cc(Cl)ccc3OC)CC2)CC1 [Compound 108]	25 to 100	+++ (activity was measured to be less than 1.0 μM)	< 25	+ (activity was measured to be greater than 5.0 μM)	25 to 100	+++ (activity was measured to be less than 1.0 μM)	< 25	++ (activity was measured to be from 1.0 μM to 5.0 μM)				
COc1ccc(C(=O)C(C)(C)C)cc1C1CCN([C@H]2C[C@H]3CC[C@H]2C3)CC1 [Compound 109]	25 to 100	++ (activity was measured to be from 1.0 μM to 5.0 μM)	< 25	+ (activity was measured to be greater than 5.0 μM)	25 to 100	+ (activity was measured to be greater than 5.0 μM)	< 25	+ (activity was measured to be greater than 5.0 μM)				
c1ccc(-c2ccccc2C2CCN([C@H]3C[C@H]4CC[C@H]3C4)CC2)cc1 [Compound 110]	< 25	+ (activity was measured to be greater than 5.0 μM)	< 25	+ (activity was measured to be greater than 5.0 μM)	25 to 100	++ (activity was measured to be from 1.0 μM to 5.0 μM)	< 25	+ (activity was measured to be greater than 5.0 μM)				
